In patent publication US9738615B2, “Cyclophilin D inhibitors” (The University of Kansas, priority 2014, dated 2017):
“Also recorded” adds a separate entry of the source.

Columns and labels:
CypD PPIase = CypD PPIase (Homo sapiens, UniProt P30405); experiment: CypD PPIase enzyme activity inhibition (real-time kinetics assay); assay type: biochemical; conditions: for Inhibition of CypD PPIase activity (in words): reaction progress curves, 0.39 to 50 uM (Compound 9: 0.19 to 100 uM), 25° C.
Protocol: The ability of CypD inhibitors to inhibit CypD PPIase enzyme activity was determined using a previously utilized “standard” procedure (Kofron, J. L.; Kuzmic, P.; Kishore, V.; Colon-Bonilla, E.; Rich, D. H., Determination of kinetic constants for peptidyl prolyl cis-trans isomerases by an improved spectrophotometric assay. Biochemistry 1991, 30, 6127-34). The results are presented in FIGS. 2A-2D and compared to CsA in FIG. 2E.
Linearity was maintained up to 5 minutes of incubation at 25° C. […] Linearity was maintained up to 5 minutes of incubation at 25° C. […] FIG. 10 show reaction progress curves collected for CypD activity in DMSO alone or at various Compound 6C concentrations ranging from 0.39 to 50 uM. Linearity was maintained up to 5 minutes of incubation at 25° C. […] FIG. 11 show reaction progress curves collected for CypD activity in DMSO alone or at various Compound 9 concentrations ranging from 0.19 to 100 uM. Linearity was maintained up to 5 minutes of incubation at 25° C.
Since inhibition of CypD PPIase activity was essential for potentiation of Aβ cytotoxicity, Aβ-induced cytotoxicity can presumably be decreased if the Aβ-CypD interaction is blocked with small-molecule inhibitors like Compound 9.

SK-N-SH cells [1] = experiment: Cytochrome c oxidase (CcO) activity in Aβ1-42-treated cells; assay type: cell-based
Protocol: The effect of the CypD inhibitors on cytochrome c oxidase (CcO) was studied. The effect of the CypD inhibitors on Aβ-induced mitochondrial respiratory function was assessed by determining cytochrome c oxidase (CcO) activity. CcO is a vital enzyme associated with the mitochondrial electron transport chain. SK-N-SH cells were treated for 48 hours with 5 μM of oligomer Aβ1-42 in the presence of 10-20 μM of CypD inhibitor C-9, after which samples were tested for CcO enzyme activity levels.

[2] = Blood brain barrier penetration, LC-MS/MS of CSF, plasma and brain; assay type: in vivo; conditions: mice, 10 mg/kg dose i.v., CSF and brain 4 hours after administration
Protocol: Samples were collected 4 hours after i.v. administration of 10 mg/kg of Compound 6A in mice. […] Samples were collected 4 hours after i.v. administration of 10 mg/kg of Compound 6B in mice. […] Samples were collected 4 hours after i.v. administration of 10 mg/kg of Compound 6C in mice.
Additionally a selective and sensitive method for detecting the presence of four compounds (Compounds 6A, 6B, 6C & 9) as CypD inhibitors in mouse plasma, brain and artificial cerebrospinal fluid is based on high performance liquid chromatography tandem mass spectrometry. Mass spectra were generated using Micromass Quattro Ultima “triple” quadrupole mass spectrometer equipped with Electrospray ionization interface. The method used for pharmacokinetic studies of compounds in mouse cerebrospinal fluid, plasma, and brain is accurate, precise, and specific with no matrix effect.

[3] = biological target: human recombinant CypD protein (Homo sapiens, UniProt P30405); experiment: Surface plasmon resonance (SPR) binding to immobilized CypD; conditions: for Kd: 1:1 Langmuir binding fit, CypD immobilized on CM5 chip, read-out: KD (equilibrium dissociation constant); for Binding to CypD (in words): dose dependent
Protocol: In vitro SPR was used to verify the ability of the CypD inhibitors to bind to human recombinant CypD protein, which correlates with its potential CypD inhibitory activity.
Surface plasmon resonance (SPR) analysis of CypD-Pyrimidine derivative binding interaction, where the globally fit data (black lines) were overlaid with experimental data (greyish lines). Human recombinant CypD protein (10 μg/ml) was immobilized directly on the hydrophilic carboxy methylated dextran matrix of the CM5 sensor chip (Biacore-3000) using the standard primary amine coupling reaction according to standard procedures. Compound 9 (2.5, 5, 10, 15, 20 μM) was injected at a flow rate of 40 μl/min for the determination of the kinetic and equilibrium constants. All data analyses were carried out using BIA evaluation software, and sensor grams were processed by automatic correction for nonspecific bulk refractive index.
The equilibrium dissociation constant (KD) was determined using a 1:1 Langmuir binding fit model and the association (kon) and dissociation (koff) rate constants were determined using Equations (1) and (2). dR/dt=kon×C×(Rmax−R)−koff×R (1)
Where R represents the response unit, C is the concentration of the analyte, and KD=koff/kon (2)
The obtained results were evaluated by χ^2 analysis and the kinetic parameters for Compound 9 are provided.

cortical mitochondria = experiment: Calcium-induced mitochondrial swelling assay; design: species or system mice; conditions: mouse cortical mitochondria treated with Ca2+, compound added dose-dependently
Text: Mitochondrial swelling in response to calcium was also studied. It is known that CypD-deficient cortical mitochondria are resistant to Aβ- and calcium (Ca^2+)-induced mitochondrial swelling and mitochondrial permeability transition. […] In order to determine the relationship between Ca^2+ and mitochondrial swelling, cortical mitochondria were isolated from mice and subjected to a swelling assay. Mitochondria treated with Ca^2+ experienced excessive swelling.
The fact that brain mitochondrial swelling was not affected by the inhibitors alone implies a symbiotic relationship between Ca^2+ and the inhibitor.

SK-N-SH cells [4] = experiment: Cellular ATP levels in Aβ1-42-treated cells; assay type: cell-based; conditions: 48 hours
Protocol: The effect of the CypD inhibitors on the levels of adenosine-5′-triphosphate (ATP) was studied. To determine the effect of the CypD inhibitors on Aβ-induced energy metabolism impairment, cellular ATP levels were analyzed. SK-N-SH cells were exposed to 5 μM of Aβ1-42 in the presence of 10-20 μM of Compound 9. After 48 hours, we measured the ATP concentrations in the cell lysates.

SK-N-SH cells [5] = experiment: MTT reduction cell viability assay (toxicity of inhibitor alone); assay type: cell-based; conditions: 0, 5, 10, 25, 50, and 100 μM in healthy SK-N-SH cells
Text: The effect of the CypD inhibitors on cell viability was studied. Excellent reversal effects of the CypD inhibitor on Aβ-affected processes were observed, including diminished mitochondrial swelling, and enhanced CcO activity and ATP production, assessment of the overall cell health of SK-N-SH cells treated with the CypD inhibitors were studied. A wide dosing range was utilized to examine the effect of the CypD inhibitors on cell viability using an MTT (3-(4,5-dimethylthiazol-2-yl)-2,5-diphenyltetrazolium_bromide) reduction assay (0, 5, 10, 25, 50, and 100 μM of inhibitor diluted in cell culture medium).

SK-N-SH cells [6] = experiment: Aβ-induced neuronal cell death, MTT reduction assay; assay type: cell-based; conditions: 10 and 20 μM
Text: Assays examined the effect of the CypD inhibitor compounds on Aβ-induced neuronal cell death, commonly observed in AD. […] The addition of various dosages of inhibitor to the cells in the presence of Aβ1-42 increased cell viability. […] Thus, this evidence provides support that inhibition of CypD with specific inhibitors can provide a beneficial and powerful therapeutic tool in AD treatment.

CypD PPIase, sequence (P30405 30-207): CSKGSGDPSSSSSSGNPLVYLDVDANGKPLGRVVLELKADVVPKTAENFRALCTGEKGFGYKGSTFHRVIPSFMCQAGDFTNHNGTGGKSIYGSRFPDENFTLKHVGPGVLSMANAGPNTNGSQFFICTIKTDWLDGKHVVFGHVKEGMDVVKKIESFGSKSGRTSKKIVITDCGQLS
human recombinant CypD protein, sequence (P30405 30-207): as above

| Blood-brain barrier penetration [2] | Kd [3] [nM] | Binding to CypD (in words) [3] | IC50 (CypD PPIase; real time fluorescence monitoring, read-out: IC50 inhibiting PPIase activity of CypD) [nM] | SMILES | Inhibition of CypD PPIase activity (in words) (CypD PPIase) | Aβ-induced mitochondrial dysfunction (cytochrome c oxidase and ATP levels) (SK-N-SH cells [1]) | Calcium-induced mitochondrial swelling (cortical mitochondria) | CcO activity in Aβ-treated cells (SK-N-SH cells [1]; 5 μM oligomer Aβ1-42, 10-20 μM inhibitor, 48 hours) | ATP levels in Aβ-treated cells (SK-N-SH cells [4]; 5 μM Aβ1-42, 10-20 μM compound, cell lysates) | ATP levels in cells exposed to inhibitor versus vehicle-treated cells without Aβ1-42 (SK-N-SH cells [4]; 10-20 μM compound) | Cell viability (MTT reduction), inhibitor alone (SK-N-SH cells [5]) | Cell viability in the presence of Aβ1-42 (MTT reduction) (SK-N-SH cells [6]) |
| --- | --- | --- | --- | --- | --- | --- | --- | --- | --- | --- | --- | --- |
| penetrate the blood-brain barrier |  |  |  | CCOC(=O)C1=C(C)N=C2SC=C(CCc3ccccc3)N2C1c1cccc([N+](=O)[O-])c1 (centres unmarked) [Compound 6A] | inhibits CypD activity; also recorded: effective in reducing CypD peptidyl prolyl isomerase enzyme activity | abolished Aβ-induced mitochondrial dysfunction |  |  |  |  |  |  |
| penetrate the blood-brain barrier | 248 | high binding affinity |  | CCOC(=O)C1=C(C)N=C2SC=C(CCc3ccccc3)N2C1c1ccc(O)cc1 (centres unmarked) [Compound 6B] | inhibits CypD activity; also recorded: effective in reducing CypD peptidyl prolyl isomerase enzyme activity | abolished Aβ-induced mitochondrial dysfunction |  |  |  |  |  |  |
| penetrate the blood-brain barrier |  |  |  | CCOC(=O)C1=C(C)N=C2SC=C(CCc3ccccc3)N2C1c1ccc(F)cc1 (centres unmarked) [Compound 6C] | inhibits CypD activity; also recorded: effective in reducing CypD peptidyl prolyl isomerase enzyme activity | abolished Aβ-induced mitochondrial dysfunction |  |  |  |  |  |  |
| penetrate the blood-brain barrier | 149 | high binding affinity | 1490 ± 200 | Cc1nc(-c2ccc(OCC(C)C)c(C#N)c2)sc1C(=O)Nc1ccc(S(N)(=O)=O)cc1 [Compound 9] | inhibits CypD activity; also recorded: effective in reducing CypD peptidyl prolyl isomerase enzyme activity | abolished Aβ-induced mitochondrial dysfunction | swelling was diminished | rescued CcO activity | rescued ATP concentrations | comparable to those of vehicle-treated cells | no significant effect | significant effect on cell health |
